Measured values: article PMC7999550, “Novel Multifunctional Ascorbic Triazole Derivatives for Amyloidogenic Pathway Inhibition, Anti-Inflammation, and Neuroprotection” (Molecules, 2021)

How the values were obtained:
P19-derived neurons [1] = assay: Neuroprotective assay, serum-deprivation-induced oxidative stress (XTT); type: cell-based; details: 1 nM, p > 0.05
Method: (§1) P19 cells were grown in alpha minimal essential medium (α-MEM) supplemented with 7.5% newborn calf serum (NCS), 2.5% fetal bovine serum (FBS), and 1% antibiotics–antimycotic solution in a 5% CO2 humidified atmosphere at 37 °C. Cells in monolayer cultures were maintained in exponential growth by subculturing every two days.
Exponentially grown cultures were trypsinized and dissociated into single cells. P19 cells (2 × 10^6 cells/mL) were then suspended in 10 mL α-MEM supplemented with 5% FBS, 1% antibiotics–antimycotic solution, and 0.5 µM all transretinoic acid (RA) and seeded onto a 100-mm bacteriological culture dish. The cells formed large aggregates in suspension. After four days of RA treatment, the aggregates were dissociated by 5-mL glass measuring pipette and replated on poly-L-lysine-precoated multiwell plates (the multiwell plates were coated with 50 µg/mL poly-L-lysine, dissolved in PBS overnight, and sterilized under UV light for 30 min) at 7 × 10^4 cells/mL (150 µL/well in 96-well plate) in α-MEM supplemented with 10% FBS and 1% antibiotics–antimycotic solution and incubated for 24 h. […]
The assay was carried out with P19-derived neurons cultured in a 96-well plate by using the serum-deprivation method. […] Data were expressed as mean ± SEM (n = 3, each n was run in triplicate), with the medium as a control, representing 100% cell viability. […]

[2] = Antioxidant activity assay (DPPH); details: for Antioxidant %Inhibition (±SEM): at a concentration of 400 µM, mean ± SEM, n = 3
Method: […] The reaction was a mixture of 70 µL of DPPH solution (500 µM in 80% methanol), 10 µL of 80% methanol, and 20 µL of test compound. The reaction was incubated at room temperature in the dark for 30 min. The absorbance was then measured at 517 nm using Infinite 200 Pro™ (Tecan). Ascorbic acid was used as a positive control.

amyloid-β (1-42) peptide = molecular target: T1, amyloid-β (1-42) peptide (Homo sapiens, UniProt P05067); assay: Amyloid aggregation inhibition assay (ThT); type: biochemical; details: for inhibition at 400 µM: at a concentration of 400 µM, ThT, 48 h
T1 construct: 9 µL of 25 μM working solution of amyloid-β (1-42) peptide; purchased Anaspec, Fremont, CA, USA
Method: The ascorbic derivatives ware evaluated for activities of amyloid β aggregation inhibition at a concentration of 400 µM. Briefly, in each well of transparent plate, 9 µL of 25 μM working solution of amyloid-β (1-42) peptide and 1 µL of test compound were gently mixed and then incubated in the dark at 37 °C for 48 h. After the incubation, 200 µL of 5 µM ThT (Sigma®, Saint Louis, MO, USA) in 50 mM Tris buffer (pH 7.4) was added to each well. Fluorescence was then measured at Ex = 446 nm and Em = 480 nm using a SpectraMax Gemini EM™, San Jose, CA, USA [26, 62]. Curcumin was used as a positive control, at a concentration of 100 µM.

BACE1 = molecular target: T2, BACE1 (Homo sapiens, UniProt P56817); assay: β-Secretase (BACE1) inhibition assay (FRET); type: biochemical; details: for inhibition at 400 µM: at a concentration of 400 µM, mean ± SEM, n = 3
T2 construct: purchased Sino Biological, Beijing, China
Method: All ascorbic derivatives (2a–2c and 5a–5c), at a concentration of 400 µM, were evaluated for β-secretase inhibitory activities by using the FRET assay. Briefly, the reaction composing 30 µL of 0.01 unit/µL BACE1 enzyme stock solution, 20 µL of 5% DMSO of test compound, 30 µL of sodium acetate buffer (pH 4.5), and 20 µL of 125 µM β-secretase substrate IV (Calbiochem®, San Diego, CA, USA) was incubated at 37 °C for 30 min. Fluorescence was then measured at Ex = 380 nm and Em = 510 nm using a SpectraMax Gemini EM™, San Jose, CA, USA [26, 61]. β-secretase inhibitor I (Anaspec®, Fremont, CA, USA) was used as a positive control, at a concentration of 100 µM. The experiments were performed in triplicate. For the compounds exerting inhibitory activities more than 20%, an IC50 value was further determined.

COX-2 = COX-2 mRNA expression in LPS-activated RAW 264.7 (RT-qPCR); type: cell-based, murine; details: 10 and 100 nM, 1 h pretreatment before LPS, n = 3, p < 0.05
Method: (§2) Cell lines that reached 80% confluence within 48 h were selected for further gene expression study. […] The experiment was conducted in triplicate. After the cell lines were treated with the testing samples for one hour, 2 μg/mL LPS (lipopolysaccharide; Sigma-Aldrich, St. Louis, MO, USA) was added to the cell lines and then maintained in an incubator for another 24 h to induce the cell inflammatory process. […] Total RNA quality and quantity were examined by NanoDrop. An equivalent of 2000 ng total RNA from each sample was then reverse-transcribed to produce first-strand complementary DNA (cDNA) using a Tetro cDNA Synthesis Kit (Bioline USA Inc., Memphis, TN, USA), according to the manufacturer's instruction. Briefly, the total RNA template was mixed with 4 μ[…] buffer, 1 μL oligo dT(18), 1 μL dNTP mix […], 1 μL Rnase inhibitor, and 1 μL reverse transcriptase. Diethylpyrocarbonate (DEPC)-treated water was then added to a mixture to adjust the volume to a final 20-μl reaction. An incubation process to produce first strand cDNA was carried out in a thermal cycler (SensoQuest Labcycler). Primer annealing and strand extending occurred at 45 °C for 30 min and a reverse transcriptase was finally heat-inactivated at 85 °C for 5 min. The corresponding cDNA products were then used as a template in a quantitative polymerase chain reaction (qPCR) to study COX-2 and iNOS gene expressions, with GAPDH as a reference gene. The primer sequences for qPCR quantifications were as follows: COX-2: [NT] (reverse); iNOS: [NT] (reverse), and GAPDH: [NT] (reverse). […] Then, 20 μL qPCR reaction was prepared by mixing a 1-μL cDNA template with 0.8 μL forward primer […], 0.8 μL reverse primer […], 10 μL SYBR, and 7.4 μL DI water. Gene expression was measured in a 96-well plate using a BIO-RAD iCycler IQ^TM5 detection system. qPCR reaction was initially heated to 95 °C 10 min, and then underwent 40 cycles of 95 °C 15 s and 60 °C 1 min. […] Each corresponding expression was computed as a relative fold change using the 2^-delta delta Ct method, normalized to the GAPDH gene.

P19-derived neurons [3] = assay: Viability assay (XTT) on P19-derived neurons; type: cell-based; details: 18 h, nontoxic condition, versus 0.5% DMSO, derivatives at 1 nM
Method: as §1
Exponentially grown cultures were trypsinized and dissociated into single cells. P19 cells (2 × 10^6 cells/mL) were then suspended in 10 mL α-MEM supplemented with 5% FBS, 1% antibiotics–antimycotic solution, and 0.5 µM all transretinoic acid (RA) and seeded onto a 100-mm bacteriological culture dish. The cells formed large aggregates in suspension. After four days of RA treatment, the aggregates were dissociated by 5-mL glass measuring pipette and replated on poly-L-lysine-precoated multiwell plates (the multiwell plates were coated with 50 µg/mL poly-L-lysine, dissolved in PBS overnight, and sterilized under UV light for 30 min) at 7 × 10^4 cells/mL (150 µL/well in 96-well plate) in α-MEM supplemented with 10% FBS and 1% antibiotics–antimycotic solution and incubated for 24 h. Cytosine-1-β-D-arabinoside or Ara-C (10 µM) was added at day 1 after plating, and the medium was changed every two to three days. The differentiated neuronal cells, P19-derived neurons, were used after day 14 of the differentiation process.
The assay was carried out on P19-derived neurons cultured in a 96-well plate. After 14 days of the differentiation process, the α-MEM, supplemented with 10% FBS, 10 μM Ara-C, and 1% antibiotics–antimycotic solution, was removed and DMSO solutions of the sample, diluted with α-MEM supplemented with 10% FBS and 1% antibiotics–antimycotic solution in the presence of 10 μM Ara-C, were added to produce the concentrations of 10,000, 1000, 100, 10, and 1 nM. A concentration of DMSO was added to the cultures at 0.5% v/v. […] The OD value was determined by using a microplate reader at 450 nm. Data were expressed as mean ± SEM (n = 3, each n was run in triplicate), with the medium as a control, representing 100% cell viability. […]

iNOS = iNOS mRNA expression in LPS-activated RAW 264.7 (RT-qPCR); type: cell-based, murine; details: 10 and 100 nM, 1 h pretreatment before LPS, n = 3, p < 0.05
Method: as §2

T1 sequence (P05067 672-713 limits assumed): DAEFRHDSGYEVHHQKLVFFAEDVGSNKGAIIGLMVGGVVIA
T2 sequence (P56817 46-501): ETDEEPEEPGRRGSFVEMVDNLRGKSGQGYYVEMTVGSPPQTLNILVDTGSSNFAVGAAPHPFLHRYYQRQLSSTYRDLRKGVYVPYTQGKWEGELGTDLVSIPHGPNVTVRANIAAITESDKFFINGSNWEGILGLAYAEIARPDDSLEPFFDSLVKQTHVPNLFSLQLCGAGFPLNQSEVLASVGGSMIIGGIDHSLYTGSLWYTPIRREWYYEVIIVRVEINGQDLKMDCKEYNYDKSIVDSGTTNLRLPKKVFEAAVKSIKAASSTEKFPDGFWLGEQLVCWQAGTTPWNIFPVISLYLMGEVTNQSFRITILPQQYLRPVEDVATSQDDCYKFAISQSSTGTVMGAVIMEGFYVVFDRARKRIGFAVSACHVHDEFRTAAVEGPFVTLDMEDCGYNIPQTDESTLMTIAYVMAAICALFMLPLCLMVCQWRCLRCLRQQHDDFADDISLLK

SMILES | IC50 [2] [µM] | IC50 (amyloid-β (1-42) peptide) [µM] | inhibition at 400 µM (amyloid-β (1-42) peptide; mean ± SEM, n = 3) [%] | inhibition at 400 µM (BACE1) [%] | inhibition at 100 µM (amyloid-β (1-42) peptide; positive control at 100 μM, mean ± SEM, n = 3) [%] | melting point [°C] | IC50 (BACE1) [µM] | neuroprotective activity compared with quercetin (positive control) (P19-derived neurons [1]) | Antioxidant %Inhibition (±SEM) [2] [%] | expression of COX-2 gene compared to 0.001% DMSO control (COX-2) | cytotoxicity / cell viability of P19-derived neurons (P19-derived neurons [3]) | expression of iNOS gene compared to 0.001% DMSO control (iNOS)
COc1cc(Cn2cc(COC[C@H](O)[C@H]3OC(=O)C(O)=C3O)nn2)ccc1O [Compound 2b, (R)-3,4-Dihydroxy-5-((S)-1-hydroxy-2-((1-(4-hydroxy-3-methoxybenzyl)-1H-1,2,3-triazol-4-yl)methoxy)ethyl)furan-2(5H)-one] | 156 | 319 | 51 ± 2.12 | 6.29 ± 0.98 |  |  |  | no statistical differences | 62.81 ± 2.62 |  |  | 
COc1cc(Cn2cc(COC3=C(O)C(=O)O[C@@H]3[C@@H](O)CO)nn2)ccc1O [Compound 5b, (R)-5-((S)-1,2-Dihydroxyethyl)-3-hydroxy-4-((1-(4-hydroxy-3-methoxybenzyl)-1H-1,2,3-triazol-4-yl)methoxy)furan-2(5H)-one] | 103 |  | 19.6 ± 1.83 |  |  |  |  |  | 77.37 ± 1.60 |  |  | 
COc1cc(/C=C/C(=O)CC(=O)/C=C/c2ccc(O)c(OC)c2)ccc1O [Curcumin, reference compound] |  |  |  |  | 94.5 ± 1.15 |  |  |  |  |  |  | 

Second part, led by results:

IC50 [2] [µM] | IC50 (amyloid-β (1-42) peptide) [µM] | inhibition at 400 µM (amyloid-β (1-42) peptide; mean ± SEM, n = 3) [%] | inhibition at 400 µM (BACE1) [%] | inhibition at 100 µM (amyloid-β (1-42) peptide; positive control at 100 μM, mean ± SEM, n = 3) [%] | melting point [°C] | IC50 (BACE1) [µM] | SMILES | neuroprotective activity compared with quercetin (positive control) (P19-derived neurons [1]) | Antioxidant %Inhibition (±SEM) [2] [%] | expression of COX-2 gene compared to 0.001% DMSO control (COX-2) | cytotoxicity / cell viability of P19-derived neurons (P19-derived neurons [3]) | expression of iNOS gene compared to 0.001% DMSO control (iNOS)
91.2 |  | 34.5 ± 3.62 |  |  |  |  | O=C1O[C@H]([C@@H](O)CO)C(OCc2cn(Cc3ccc(O)cc3)nn2)=C1O [Compound 5a, (R)-5-((S)-1,2-Dihydroxyethyl)-3-hydroxy-4-((1-(4-hydroxybenzyl)-1H-1,2,3-triazol-4-yl)-methoxy)furan-2(5H)-one] |  | 78.42 ± 0.93 |  |  | 
21.3 | 146 | 63.4 ± 0.87 | 7.84 ± 1.75 |  |  |  | O=C1O[C@H]([C@@H](O)CO)C(O)=C1O [Ascorbic acid, reference compound] |  | 94.85 ± 0.62 | downregulate | decreased | downregulate
62.9 | 136 | 68.26 ± 0.67 | 27.3 ± 1.41 |  | 144 to 146 | 593 | O=C1O[C@H]([C@@H](O)CO)C(OCc2cn(CC3Cc4c([nH]c5ccccc45)CN3)nn2)=C1O (stereo partly drawn) [Compound 5c, (R)-5-((S)-1,2-Dihydroxyethyl)-3-hydroxy-4-((1-((2,3,4,9-tetrahydro-1H-pyrido[3,4-b]indol-3-yl)methyl)-1H-1,2,3-triazol-4-yl)methoxy)furan-2(5H)-one] |  | 85.84 ± 2.43 | downregulate | significantly higher viability than 0.5% DMSO | downregulate
72.3 | 92.3 | 71.8 ± 1.42 | 23.5 ± 1.66 |  | 172 to 174 | 726 | O=C1O[C@H]([C@@H](O)COCc2cn(CC3Cc4c([nH]c5ccccc45)CN3)nn2)C(O)=C1O (stereo partly drawn) [Compound 2c, (R)-3,4-Dihydroxy-5-((S)-1-hydroxy-2-((1-((2,3,4,9-tetrahydro-1H-pyrido[3,4-b]indol-3-yl)-methyl)-1H-1,2,3-triazol-4-yl)methoxy)ethyl)furan-2(5H)-one] |  | 94.67 ± 0.50 | downregulate |  | downregulate
